Measured values reported in patent US8735443B2, “Method of treating diabetes-related vascular complications” (Kuwait University, priority 2008, dated 2014).

Assays:
gp 91^phox = experiment: Aortic mRNA expression by real-time PCR, gp 91phox; format: in vivo, rat; conditions: aorta of LA-treated GK rats
Procedure: Further, with regard to quantitative real-time polymerase chain reactions (PCR) in the study, total RNA from the arterial samples was isolated using TRIZOL® reagent, and RNA integrity was verified by agarose gel electrophoresis and quantified by spectrophotometry. Reverse transcription reaction of total RNA (5 μg) was performed using a superscript 111 first-strand synthesis system. Quantitative real-time PCR was performed using fast SYBR Green QPCR. […]
The housekeeping gene beta-actin was used for internal normalization. Fidelity of the PCR reaction was determined by melting temperature analysis. PCR efficiency for each primer pair was determined by quantitating amplification with increasing concentration of template cDNA. […] RNA expression of target genes was calculated based on the real-time PCR efficiency E and the threshold crossing point (CP) and is expressed relative to the reference gene beta-actin.

protein-bound carbonyls = experiment: Aortic content of protein-bound carbonyls; conditions: aorta of LA-treated GK rats
aortic tissue = experiment: Aortic superoxide production, lucigenin-enhanced chemiluminescence; format: in vivo, rat; conditions: GK rats, LA 50 mg/kg i.p. daily for four weeks
Procedure: In the study, with regard to measurement of vascular superoxide anion formation, O2^− concentration in aortic tissue was determined using a lucigenin-enhanced chemiluminescence method, and the resulting data were further confirmed by a cytochrome c-based technique. Segments of the thoracic aorta were placed into 2 ml Krebs-Henseleit buffer (KHB, pH 7.4), and prewarmed to 37° C. for one hour. Immediately before measurement, rings were transferred to scintillation vials containing KHB with 5 μmol/L lucigenin and the O2^− generated chemiluminescence was recorded for five minutes with a scintillation counter. The amount of O2^− produced was quantified using a standard curve of O2^− generation by xanthine/xanthine oxidase and the data are expressed as nmol per min, per mg, of wet weight. In some experiments, vessels were denuded of endothelium by gentle rubbing of the luminal surface, whereas in others, N^ω-nitro-L-arginine methyl ester (L-NAME) 0.1 mM, diphenylene iodonium 0.1 mM, or apocynin 3 mM were added 60 min before determining O2^− generation.

diabetic fibroblasts = experiment: Inflammatory cytokine transcription in fibroblasts, RT-PCR; format: cell-based, rat; conditions: lipoic acid 500 μM, Nrf2-dependent
Excerpt: To determine the effect of α-lipoic acid on isolated cells from normal and diabetic rats, primary rat fibroblasts were derived from dorsal skin biopsies performed on four diabetic Coto Kakizaki rats (DFs) and four age-matched (12-14 months) and sex-matched (female) Wistar control rats (CFs). After sterilization in povidine solution, the rat skin was washed in sterile water and rinsed in 70% ethanol in phosphate-buffered saline (PBS). The epidermis and dermis were separated following overnight incubation in 0.25% Trypsin/EDTA at 4° C. Samples were washed, diced and digested for thirty minutes at 37° C. in collagenase type I (250 U/ml) dissolved in Dulbecco's modified Eagle medium (DMEM; Invitrogen) containing penicillin (100 U/ml), 2 mM L-glutamine and 26 mM HEPES. After collagenase treatment, the cells were dislodged, centrifuged and resuspended in medium supplemented with 10% fetal bovine serum. […]
With regard to cytokine transcription levels, Total RNA was isolated from cultured fibroblasts using Trizol reagent (Invitrogen) and 1 μg from each sample was reverse transcribed for 1 hr at 37° C. using the High Capacity cDNA Reverse Transcription Kit. Real-time quantitative RT-PCR was performed with the TaqMan Gene Expression Assay and was normalized against […] using an ABI 7900 Real-time PCR System (Applied Biosystems). […]

cultured arteries = experiment: Cultured arteries of non-diabetic control animals exposed to TNF-α; parameters: species or system rat; conditions: pretreatment with LA

O=C(O)CCCCC1CCSS1 (stereo not drawn) [LA, alpha-lipoic acid]
rate of gene expression of pg 91^phox subunit (gp 91^phox): tended to reduce
oxidative stress-mediated damage to protein (protein-bound carbonyls) (protein-bound carbonyls): partially reversed
diabetes-mediated increase in aortic superoxide production (aortic tissue): suppression
transcription of inflammatory cytokines in diabetic fibroblasts (diabetic fibroblasts): decreases
TNF-α-induced abnormalities (O2− generation, caspase 3/7, DNA fragmentation, Ach-induced vasorelaxation) (cultured arteries): partially reversed
